The results in this text go back to PMC8964227, “IP-Se-06, a Selenylated Imidazo[1,2-a]pyridine, Modulates Intracellular Redox State and Causes Akt/mTOR/HIF-1α and MAPK Signaling Inhibition, Promoting Antiproliferative Effect and Apoptosis in Glioblastoma Cells” (Oxidative Medicine and Cellular Longevity, 2022).

One test concerns A172 cells. Description: MTT cytotoxicity assay, A172. The note with it: for IC50: Homo sapiens, A 172, 72 h, MTT; for Selectivity Index (SI): IC50 in normal cell line (HT-22)/IC50 in A172. In kind it is cell-based, human. How it is done: (§1) Cell viability after treatments with selenylated imidazo[1,2-a]pyridines (IP-Se-01–IP-Se-10) was analyzed by quantitative colorimetric assay with MTT, according to Mosmann. IP-01, a prototype molecule without the addition of the selenium in its structure, was also tested. A172 and HT-22 cells were cultured in 96-well plates (10^4 cells/well). After confluence, cells were exposed to selenylated imidazo[1,2-a]pyridines (0.1, 1, 10, 100, and 1000 μM) for up to 72 h. After this phase, cell medium was removed and the cells were washed twice with PBS and incubated with MTT solution (0.5 mg/mL) for 2 h. The insoluble formazan was dissolved by adding DMSO (100 μL/well), and colorimetric determination of MTT reduction was measured at 550 nm in a multireader Infinite M200 Tecan. Three independent experiments were conducted, and the results are presented as IC50 (half maximal inhibitory concentration).

For the next test, the system named is HT-22 cells. Nature of the test: MTT cytotoxicity assay, HT-22. In kind it is cell-based, mouse. The note with it: Mus musculus, HT-22; 72 h, MTT. How it is done: as §1

The structures appear in SMILES notation.

A word on the IC50: it is the concentration that gives 50% inhibition. On to `Cc1ccn2c([Se]c3cccc4ccccc34)c(-c3ccccc3)nc2c1` [IP-Se-05], for which, in the test with A172 cells, inhibition was half-maximal at 20.8 µM (IC50) and the “Selectivity Index (SI)” value amounted to 9.9. The IC50 with HT-22 cells was 206 µM.
For `COc1ccc(-c2nc3cc(C)ccn3c2[Se]c2ccccc2)cc1` [IP-Se-10] the same measures were 18.8 µM, 1.6 and 30 µM.
For `Cc1ccn2cc(-c3ccccc3)nc2c1` [IP-01], the IC50 with A172 cells was determined as 76.3 µM; in the test on HT-22 cells it was 153 µM. Moreover, the “Selectivity Index (SI)” value with A172 cells was 2.0.
In the same order, the values of `Cc1ccn2c([Se]c3cccs3)c(-c3ccccc3)nc2c1` [IP-Se-07] are 27.9 µM, 10.7 µM and 0.4.
As for `Cc1ccn2c([Se]c3ccccc3)c(-c3ccccc3)nc2c1` [IP-Se-01], the IC50 came out at 98.8 µM with A172 cells and 75.4 µM with HT-22 cells. In the test on A172 cells, the “Selectivity Index (SI)” value is listed as 0.7.
For `Cc1ccc([Se]c2c(-c3ccccc3)nc3cc(C)ccn23)cc1` [IP-Se-02] the same measures were 73.2 µM, 144 µM and 1.9.
On to `CCCC[Se]c1c(-c2ccccc2)nc2cc(C)ccn12` [IP-Se-08], for which, in the test with A172 cells, half-maximal inhibition (IC50) was put at 20.9 µM and the “Selectivity Index (SI)” value is on record as 1.5. In the test on HT-22 cells, this molecule yielded an IC50 of 31.2 µM.
Regarding `Cc1ccn2c([Se]c3ccc(Cl)cc3)c(-c3ccccc3)nc2c1` [IP-Se-04], the IC50 came out at 43.6 µM with A172 cells and 306 µM with HT-22 cells. Besides, the “Selectivity Index (SI)” value in the test on A172 cells is 7.0.
For `c1ccc([Se]c2c(-c3ccccc3)nc3ncccn23)cc1` [IP-Se-09] the same measures were 21.8 µM, 6 µM and 0.3.
`COc1ccc([Se]c2c(-c3ccccc3)nc3cc(C)ccn23)cc1` [IP-Se-03]: in the test with A172 cells, the IC50 is 27.6 µM and the “Selectivity Index (SI)” value was 0.1. Besides, the IC50 in the test with HT-22 cells worked out at 3.9 µM.
